Laboratory results taken from US8729082B2, “Substituted imidazoquinoxalines” (Bayer Intellectual Property GmbH, priority 2009, dated 2014).

target: T1, human kinase Mps-1 (Homo sapiens, UniProt P33981); experiment: Mps-1 kinase assay (HTRF); format: biochemical; conditions: lowATP; mean; read-out: Mps1 lowATP mean IC50
T1 construct: N-terminally GST-tagged human full length recombinant Mps-1 kinase; purchased Invitrogen, Karslruhe, Germany PV4071
T1 sequence (P33981 1-857): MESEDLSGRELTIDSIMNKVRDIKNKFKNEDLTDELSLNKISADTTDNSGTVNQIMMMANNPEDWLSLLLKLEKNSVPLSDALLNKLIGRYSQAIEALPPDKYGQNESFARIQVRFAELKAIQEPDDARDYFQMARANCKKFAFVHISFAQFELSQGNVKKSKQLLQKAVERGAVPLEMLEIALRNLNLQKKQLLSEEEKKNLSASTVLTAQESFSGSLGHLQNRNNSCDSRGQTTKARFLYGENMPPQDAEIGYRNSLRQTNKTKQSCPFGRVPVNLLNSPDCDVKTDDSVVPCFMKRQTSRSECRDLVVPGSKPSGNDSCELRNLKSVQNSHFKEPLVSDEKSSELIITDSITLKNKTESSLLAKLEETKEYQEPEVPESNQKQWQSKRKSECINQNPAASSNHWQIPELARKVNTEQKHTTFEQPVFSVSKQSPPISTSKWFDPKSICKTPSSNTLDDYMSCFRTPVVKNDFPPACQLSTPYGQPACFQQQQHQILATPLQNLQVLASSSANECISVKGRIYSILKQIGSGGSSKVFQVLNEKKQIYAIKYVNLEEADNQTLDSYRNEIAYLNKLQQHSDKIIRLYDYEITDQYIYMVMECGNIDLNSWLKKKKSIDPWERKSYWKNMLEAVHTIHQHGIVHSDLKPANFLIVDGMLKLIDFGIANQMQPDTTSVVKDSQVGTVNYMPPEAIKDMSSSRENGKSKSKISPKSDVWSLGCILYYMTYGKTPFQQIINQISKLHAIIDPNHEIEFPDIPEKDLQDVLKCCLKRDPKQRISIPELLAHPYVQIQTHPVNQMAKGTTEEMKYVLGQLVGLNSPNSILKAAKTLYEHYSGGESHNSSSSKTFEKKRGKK
How it was run: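 HTRF readout: EDTA-stopped reactions incubated 1 h with europium anti-phospho(Ser/Thr) antibody and streptavidin-XLent, emission ratio 665/620 nm after 350 nm excitation. Kinase step: compound pre-bound 15 min to ~1 nM GST-Mps-1, then 60 min at 22 °C with ATP and biotin-peptide substrate; inhibition scaled between no-inhibitor (0%) and no-enzyme (100%) controls.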

SMILES	IC50
COCCCNc1nc2cc(C)c(C)cc2n2c(-c3ccc(C(=O)NC4CC4)c(Cl)c3)cnc12 [Example 2-196, 2-chloro-N-cyclopropyl-4-{4-[(3-methoxypropyl)amino]-7,8-dimethylimidazo[1,2-a]quinoxalin-1-yl}benzamide]	140 nM
Cc1cc2nc(NCCCNC(=O)OC(C)(C)C)c3ncc(-c4ccc(C(=O)NC5CC5)c(Cl)c4)n3c2cc1C [Example 2-197, tert-butyl [3-({1-[3-chloro-4-(cyclopropylcarbamoyl)phenyl]-7,8-dimethylimidazo[1,2-a]quinoxalin-4-yl}amino)propyl]carbamate]	50.5 nM
Cc1cc2nc(NCc3ccn(C)n3)c3ncc(-c4ccc(C(=O)NC5CC5)c(Cl)c4)n3c2cc1C [Example 2-198, 2-chloro-N-cyclopropyl-4-(7,8-dimethyl-4-{[(1-methyl-1H-pyrazol-3-yl)methyl]amino}imidazo[1,2-a]quinoxalin-1-yl)benzamide]	127 nM
Cc1cc2nc(NCc3ccnn3C)c3ncc(-c4ccc(C(=O)NC5CC5)c(Cl)c4)n3c2cc1C [Example 2-199, 2-chloro-N-cyclopropyl-4-(7,8-dimethyl-4-{[(1-methyl-1H-pyrazol-5-yl)methyl]amino}imidazo[1,2-a]quinoxalin-1-yl)benzamide]	25.9 nM
Cc1cc2nc(NCc3cnn(C)c3)c3ncc(-c4ccc(C(=O)NC5CC5)c(Cl)c4)n3c2cc1C [Example 2-200, 2-chloro-N-cyclopropyl-4-(7,8-dimethyl-4-{[(1-methyl-1H-pyrazol-4-yl)methyl]amino}imidazo[1,2-a]quinoxalin-1-yl)benzamide]	67.6 nM
Cc1cc2nc(NCCS(N)(=O)=O)c3ncc(-c4ccc(C(=O)NC5CC5)c(Cl)c4)n3c2cc1C [Example 2-201, 2-chloro-N-cyclopropyl-4-{7,8-dimethyl-4-[(2-sulfamoylethyl)amino]imidazo[1,2-a]quinoxalin-1-yl}benzamide]	62.3 nM
Cc1cc2nc(NCC(O)CO)c3ncc(-c4ccc(C(=O)NC5CC5)c(Cl)c4)n3c2cc1C (stereo not drawn) [Example 2-202, 2-chloro-N-cyclopropyl-4-{4-[(2,3-dihydroxypropyl)amino]-7,8-dimethylimidazo[1,2-a]quinoxalin-1-yl}benzamide]	335 nM
CCCNc1nc2cc(C#N)ccc2n2c(-c3ccc(C(=O)NC4CC4)cc3)cnc12 [Example 2-203, 4-[7-cyano-4-(propylamino)imidazo[1,2-a]quinoxalin-1-yl]-N-cyclopropylbenzamide]	11.1 nM
N#Cc1ccc2c(c1)nc(NCCO)c1ncc(-c3ccc(C(=O)NC4CC4)cc3)n12 [Example 2-204, 4-{7-cyano-4-[(2-hydroxyethyl)amino]imidazo[1,2-a]quinoxalin-1-yl}-N-cyclopropylbenzamide]	77.6 nM
N#Cc1ccc2c(c1)nc(NCCCN1CCOCC1)c1ncc(-c3ccc(C(=O)NC4CC4)cc3)n12 [Example 2-205, 4-(7-cyano-4-{[3-(morpholin-4-yl)propyl]amino}imidazo[1,2-a]quinoxalin-1-yl)-N-cyclopropylbenzamide]	413 nM
N#Cc1ccc2c(c1)nc(NCc1cccc(F)c1)c1ncc(-c3ccc(C(=O)NC4CC4)cc3)n12 [Example 2-206, 4-{7-cyano-4-[(3-fluorobenzyl)amino]imidazo[1,2-a]quinoxalin-1-yl}-N-cyclopropylbenzamide]	50.7 nM
N#Cc1ccc2c(c1)nc(NCCCN1CCCC1=O)c1ncc(-c3ccc(C(=O)NC4CC4)cc3)n12 [Example 2-207, 4-(7-cyano-4-{[3-(2-oxopyrrolidin-1-yl)propyl]amino}imidazo[1,2-a]quinoxalin-1-yl)-N-cyclopropylbenzamide]	195 nM
COCCNc1nc2cc(C#N)ccc2n2c(-c3ccc(C(=O)NC4CC4)cc3)cnc12 [Example 2-208, 4-{7-cyano-4-[(2-methoxyethyl)amino]imidazo[1,2-a]quinoxalin-1-yl}-N-cyclopropylbenzamide]	79.5 nM
N#Cc1ccc2c(c1)nc(NCC(F)(F)F)c1ncc(-c3ccc(C(=O)NC4CC4)cc3)n12 [Example 2-209, 4-{7-cyano-4-[(2,2,2-trifluoroethyl)amino]imidazo[1,2-a]quinoxalin-1-yl}-N-cyclopropylbenzamide]	28.9 nM
CCNc1nc2cc(C#N)ccc2n2c(-c3ccc(C(=O)NC4CC4)cc3)cnc12 [Example 2-210, 4-[7-cyano-4-(ethylamino)imidazo[1,2-a]quinoxalin-1-yl]-N-cyclopropylbenzamide]	35.9 nM

Second part, the compound after the results:

IC50	SMILES
32.9 nM	N#Cc1ccc2c(c1)nc(NCCCO)c1ncc(-c3ccc(C(=O)NC4CC4)cc3)n12 [Example 2-211, 4-{7-cyano-4-[(3-hydroxypropyl)amino]imidazo[1,2-a]quinoxalin-1-yl}-N-cyclopropylbenzamide]
10 nM	CCCCNc1nc2cc(C#N)ccc2n2c(-c3ccc(C(=O)NC4CC4)cc3)cnc12 [Example 2-212, 4-[4-(butylamino)-7-cyanoimidazo[1,2-a]quinoxalin-1-yl]-N-cyclopropylbenzamide]
106 nM	N#Cc1ccc2c(c1)nc(NCc1ccccn1)c1ncc(-c3ccc(C(=O)NC4CC4)cc3)n12 [Example 2-213, 4-{7-cyano-4-[(pyridin-2-ylmethyl)amino]imidazo[1,2-a]quinoxalin-1-yl}-N-cyclopropylbenzamide]
28.8 nM	N#Cc1ccc2c(c1)nc(NCc1cccnc1)c1ncc(-c3ccc(C(=O)NC4CC4)cc3)n12 [Example 2-214, 4-{7-cyano-4-[(pyridin-3-ylmethyl)amino]imidazo[1,2-a]quinoxalin-1-yl}-N-cyclopropylbenzamide]
24.8 nM	N#Cc1ccc2c(c1)nc(NCc1ccco1)c1ncc(-c3ccc(C(=O)NC4CC4)cc3)n12 [Example 2-215, 4-{7-cyano-4-[(furan-2-ylmethyl)amino]imidazo[1,2-a]quinoxalin-1-yl}-N-cyclopropylbenzamide]
9.56 nM	CC(C)CNc1nc2cc(C#N)ccc2n2c(-c3ccc(C(=O)NC4CC4)cc3)cnc12 [Example 2-216, 4-{7-cyano-4-[(2-methylpropyl)amino]imidazo[1,2-a]quinoxalin-1-yl}-N-cyclopropylbenzamide]
140 nM	N#Cc1ccc2c(c1)nc(NCCC(N)=O)c1ncc(-c3ccc(C(=O)NC4CC4)cc3)n12 [Example 2-217, 4-{4-[(3-amino-3-oxopropyl)amino]-7-cyanoimidazo[1,2-a]quinoxalin-1-yl}-N-cyclopropylbenzamide]
50.7 nM	COCCCNc1nc2cc(C#N)ccc2n2c(-c3ccc(C(=O)NC4CC4)cc3)cnc12 [Example 2-218, 4-{7-cyano-4-[(3-methoxypropyl)amino]imidazo[1,2-a]quinoxalin-1-yl}-N-cyclopropylbenzamide]
59.6 nM	Cn1ccc(CNc2nc3cc(C#N)ccc3n3c(-c4ccc(C(=O)NC5CC5)cc4)cnc23)n1 [Example 2-219, 4-(7-cyano-4-{[(1-methyl-1H-pyrazol-3-yl)methyl]amino}imidazo[1,2-a]quinoxalin-1-yl)-N-cyclopropylbenzamide]
15.6 nM	Cn1nccc1CNc1nc2cc(C#N)ccc2n2c(-c3ccc(C(=O)NC4CC4)cc3)cnc12 [Example 2-220, 4-(7-cyano-4-{[(1-methyl-1H-pyrazol-5-yl)methyl]amino}imidazo[1,2-a]quinoxalin-1-yl)-N-cyclopropylbenzamide]
67.1 nM	Cn1cc(CNc2nc3cc(C#N)ccc3n3c(-c4ccc(C(=O)NC5CC5)cc4)cnc23)cn1 [Example 2-221, 4-(7-cyano-4-{[(1-methyl-1H-pyrazol-4-yl)methyl]amino}imidazo[1,2-a]quinoxalin-1-yl)-N-cyclopropylbenzamide]
127 nM	N#Cc1ccc2c(c1)nc(NCC(O)CO)c1ncc(-c3ccc(C(=O)NC4CC4)cc3)n12 (stereo not drawn) [Example 2-222, 4-{7-cyano-4-[(2,3-dihydroxypropyl)amino]imidazo[1,2-a]quinoxalin-1-yl}-N-cyclopropylbenzamide]
4320 nM	CNC(=O)Nc1ccc(-c2cnc3c(NCCO)nc4cc(C#N)ccc4n23)cc1 [Example 2-223, 1-(4-{7-cyano-4-[(2-hydroxyethyl)amino]imidazo[1,2-a]quinoxalin-1-yl}phenyl)-3-methylurea]
3290 nM	CNC(=O)Nc1ccc(-c2cnc3c(NCCC(C)C)nc4cc(C#N)ccc4n23)cc1 [Example 2-224, 1-(4-{7-cyano-4-[(3-methylbutyl)amino]imidazo[1,2-a]quinoxalin-1-yl}phenyl)-3-methylurea]
8110 nM	CNC(=O)Nc1ccc(-c2cnc3c(NCCCN4CCCC4=O)nc4cc(C#N)ccc4n23)cc1 [Example 2-225, 1-[4-(7-cyano-4-{[3-(2-oxopyrrolidin-1-yl)propyl]amino}imidazo[1,2-a]quinoxalin-1-yl)phenyl]-3-methylurea]
